Read-outs that look alike come from different tables or passages of the source.
Legend:
[1] = Toxicity of compounds, MTT assay; type: cell-based, human; conditions: human, foreskin fibroblasts, MTT, 48 hours, read-out: percent survival of uninfected human fibroblasts
Protocol: (§1) Toxicity of compounds. Toxicity of the different doses of the various analogues were performed at least in triplicates, using a modification of the Microculture Tetrazolium (MTT) assay and uninfected monolayers of human foreskin fibroblasts. Briefly, confluent cells were incubated for at least 24 hours in the 96-well flat bottom microtiterplates (~10^5 /200 μL/well) and incubated at 37° C. in 5% CO2, 95% air to allow the cells to attach. The medium was then replaced with 200 μL of fresh medium. […] The cultures were then incubated for 48 hours, after which 50 μL of sterile MTT solution (2 mg/1 mL PBS) was added to each well. MTT solution was sterilized by filtration through 0.22 μm filters (Costar, Cambridge, Mass.). After 4 hours incubation, the medium was removed and 100 μL of dimethylsulfoxide (DMSO) was added to each well and the plates were shaken gently for 2-3 minutes to dissolve the formed formazan crystals. The absorbance was measured at 540 nm, using a computerized microtiterplate reader (Themomax, Molecular Division)

[2] = system: Toxoplasma gondii grown in human fibroblasts; assay: Incorporation of radiolabeled uracil (parasite survival); type: cell-based; conditions: Toxoplasma gondii, Fibroblast, read-out: percent survival of Toxoplasma gondii grown in human fibroblasts
Protocol: Incorporation of Radiolabeled Uracil. […] Uptake and incorporation of radiolabeled uracil into nucleic acids of T. gondii were carried out, at least in triplicates, in tissue culture, using monolayers of human foreskin fibroblasts infected with T. gondii. The fibroblasts were cultured in no more than 30 passages in Dulbecco's modified Eagle medium, containing 100 units/mL penicillin G and 100 μg/mL streptomycin sulfate, and 10% FBS, pH 7.2. Briefly, confluent cells (4-5 day incubation) were cultured for 24 hours in the 24-well flat bottom microtiterplates (~5×10^5 /1 mL/well) and incubated at 37° C. in 5% CO2, 95% air to allow the cells to attach. The medium was then removed and the cells were infected with isolated T. gondii in medium with 3% FBS (1 parasite/cell). After 1 hour incubation, the cultures were washed with media with 10% FBS to remove extracellular parasites. FBS was maintained at a final concentration of 10%. […] After an additional 18 hours incubation, the medium was replaced with 1 mL drug free media containing […] (2 μCi/mL) and incubated for another 6 hours, after which the media was removed. The fibroblasts were released from the wells by trypsinization with the addition of 200 μL trypsin/EDTA (2.5×) to each well. After 10 minutes incubation, 1 mL of ice cold 10% trichloroacetic acid (TCA) was added to each well. The plates were then placed on a shaker to insure the detachment of the cells. The suspended contents of each well were filtered through GF/A 2.4 cm glass microfiber filters (Whatman, Hillsboro, Oreg.), which were prewashed each with 1 mL double distilled H2 O and dried. After filtration, the filters were washed with 10 mL methanol, left to dry, and then placed in scintillation vials containing 5 mL of Econo-Safe scintillation fluor (Research Products International Corp., Mount Prospect, Ill.), and radioactivity was counted using an LS5801 Beckman scintillation counter.

[3] = system: uninfected human foreskin fibroblasts; assay: Toxicity of compounds, MTT assay; type: cell-based; conditions: therapeutic doses (5-50 μM tested)
Protocol: as §1

[4] = target: T. gondii adenosine kinase (Toxoplasma gondii, UniProt Q9TVW2); assay: biochemical
T. gondii adenosine kinase, sequence (Q9TVW2 whole entry): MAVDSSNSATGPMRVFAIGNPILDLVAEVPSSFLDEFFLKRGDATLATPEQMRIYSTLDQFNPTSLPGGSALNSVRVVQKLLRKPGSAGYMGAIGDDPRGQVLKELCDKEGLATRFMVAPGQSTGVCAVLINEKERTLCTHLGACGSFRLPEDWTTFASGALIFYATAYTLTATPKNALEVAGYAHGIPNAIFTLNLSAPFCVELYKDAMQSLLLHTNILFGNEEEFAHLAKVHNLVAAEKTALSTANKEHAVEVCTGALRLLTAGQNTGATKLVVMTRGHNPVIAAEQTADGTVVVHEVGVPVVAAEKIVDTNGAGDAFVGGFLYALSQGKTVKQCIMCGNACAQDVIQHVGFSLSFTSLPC
Protocol: Preparation of cytosol extracts. For the structure activity relationships studies, approximately 5×10^8 T. gondii were suspended in 1.2 ml of 50 mM N-2-hydroxyethylpiperazine-N'-2-ethanesulfonic acid (HEPES)-Cl (pH 8.0)/1 mM dithiothreitol and homogenized for 30 seconds at setting 10, using a Brinnmann Instruments Polytron homogenizer fitted with a PTA 7K1 probe. The homogenate was then centrifuged at approximately 116,000 g for 1 hour at 5° and the supernatant (cytosol extract) collected and used as the enzyme source. Fresh cytosol extracts were prepared for each experiment.
Adenosine kinase assay. T. gondii adenosine kinase activity was measured by following the formation of [^14 C]AMP from [^14 C]adenosine and ATP. […] Therefore, the standard reaction mixture contained 50 mM HEPES-Cl (pH 8.0), 1 mM dithiothreitol, 5 μM [8-^14 C]adenosine (45 Ci/mol), 0.5 mM ATP, 0.5 mM MgCl2, 25 μM (+)-EHNA or 100 μM (±)-EHNA,10-30 μl of cytosol extract (approximately 3-10 μg of protein), and either 0, 0.1, 0.25, 0.5 or 1.0 mM of the compound to be tested, in a final volume of 150 μl.
Reactions were started by the addition of [8-^14 C]adenosine, incubated at 37° for 10 minutes and terminated by placing the reaction tubes in a boiling water bath for 2 minutes. Precipitated proteins were removed by centrifugation in a microcentrifuge (approximately 13,000 g) for 5 minutes, and a 15 μl aliquot of the resulting supernatant was mixed with 5 μl of a solution containing 10 mM each of AMP and adenosine. This mixture was then spotted on silica gel thin layer chromatography plates which were developed with a mixture of chloroform/methanol/acetic acid (16:3:1). […] The substrate and product spots (which accounted for all of the radioactivity on the plates) were identified by UV quenching, cut out, and the radioactivity quantitated by liquid scintillation counting in 20 ml of Scintilene, using a Packard 460 scintillation counter. […] Enzyme velocity was calculated by multiplying the fraction of AMP formed from adenosine times the amount of adenosine in the assay, and dividing by the incubation time.
Determination and significance of AppKi values. AppKi values were used to determine the relative degree of binding of compounds to adenosine kinase as compared to adenosine. AppKi values were estimated from Dixon plots of the data (1/.nu. versus [I]), using a computer program with least squares fitting according to the general principles of Cleland (Cleland, W W, The statistical analysis of enzyme kinetic data. Adv. Enzymol. 29:1-32, 1967). The program was written by Dr. Sungman Cha (Brown University, Providence, R.I.) and modified to fit IBM BASIC by Dr. Fardos N. M. Naguib. […] It should be noted, however, that the type of inhibition (i.e., competitive, noncompetitive, or uncompetitive) produced by the compounds was not determined, nor were the compounds evaluated as substrates for T. gondii adenosine kinase.

[5] = 5 μM, [5,6-3H]uracil incorporation
[6] = 10 μM, [5,6-3H]uracil incorporation
[7] = 25 μM, [5,6-3H]uracil incorporation
[8] = 50 μM, [5,6-3H]uracil incorporation

SMILES | viability at 48 h, 5 µM [1] | viability at 48 h, 10 µM [1] | viability at 48 h, 25 µM [1] | viability at 48 h, 50 µM [1] | activity at 5 µM [2, 5] | activity at 10 µM [2, 6] | activity at 25 µM [2, 7] | activity at 50 µM [2, 8] | Ki [4] | further results
[N-]=[N+]=Nc1ccc(CNc2ncnc3c2ncn3[C@@H]2O[C@H](CO)[C@@H](O)[C@H]2O)cc1 | 97.3% | 90.3% | 88.9% | 81.5% | 36.9% | 17% | 15.1% | 24.5% | – | –
Nc1ccc(CNc2ncnc3c2ncn3[C@@H]2O[C@H](CO)[C@@H](O)[C@H]2O)cc1 [Compound 46, N^6 -(p-Aminobenzyl)adenosine] | 93.3% | 91.9% | 101% | 101% | 100% | 95.6% | 108% | 120% | – | –
CCc1nc(N)nc(N)c1-c1ccc(Cl)cc1 [Pyrimethamine, reference compound] | 104% | 98.8% | 108% | 118% | 25.9% | 12.9% | 10.2% | 13.8% | – | –
O=[N+]([O-])c1ccc(CNc2ncnc3c2ncn3[C@@H]2O[C@H](CO)[C@@H](O)[C@H]2O)cc1 | 104% | 102% | 92.3% | 107% | 35.9% | 27.6% | 21.6% | 8.4% | – | –
O=C(Nc1ncnc2c1ncn2[C@@H]1O[C@H](CO)[C@@H](O)[C@H]1O)c1ccccc1 [Compound 44, N^6 -Benzoyladenosine] | 94.4% | 94.1% | 97.6% | 99.3% | 96.4% | 94.6% | 112% | 100% | – | –
OC[C@H]1O[C@@H](n2cnc3c(NCc4ccccc4)ncnc32)[C@H](O)[C@@H]1O [Compound 45, N^6 -Benzyladenosine] | 46.3% | 21.8% | 36.5% | 31% | 62.8% | 41.8% | 52.9% | 26.3% | – | Toxicity to host cells (human fibroblasts), in words [3]: toxic to host cells at therapeutic doses
COc1ccc(C(=O)Nc2ncnc3c2ncn3[C@@H]2O[C@H](CO)[C@@H](O)[C@H]2O)cc1 [Compound 47, N^6 -(p-Methoxybenzolyl)adenosine (N^6 -anisoyladenosine)] | 92.9% | 92.6% | 99.2% | 97.4% | 94.2% | 93.1% | 104% | 125% | – | –
O=[N+]([O-])c1ccc(C[Se]c2ncnc3c2ncn3[C@@H]2O[C@H](CO)[C@@H](O)[C@H]2O)cc1 [Compound 24, 6-(p-Nitrobenzyl)selenopurine riboside] | 89.3% | 90.1% | 63.4% | 39.6% | – | – | – | – | – | activity at 5 µM [2]: 67.8%; activity at 10 µM [2]: 3.03%; activity at 25 µM [2]: 0%; activity at 50 µM [2]: 0%
Nc1ccc(S(=O)(=O)Nc2ncccn2)cc1 [Sulfadiazine, reference compound] | 98.2% | 99.7% | 99.8% | 102% | 74.6% | 64.8% | 66.3% | 66.3% | – | –
CC(C)=CCNc1ncnc2c1ncn2[C@@H]1O[C@H](CO)[C@@H](O)[C@H]1O [Compound 36] | – | – | – | – | – | – | – | – | – | Ki ([4]; AppKi for inhibition of T. gondii adenosine kinase, 5 μM adenosine, ± range, at least two estimations): 51 ± 4 µM
CC(=O)O[C@@H]1[C@H](OC(C)=O)[C@@H](CO)O[C@H]1n1cnc2c(N)ncnc21 [Compound 109, 2',3'-Di-O-acetyladenosine] | – | – | – | – | – | – | – | – | – | inhibition at 1000 µM ([4]; read-out: Inhibition of T. gondii adenosine kinase): < 10%
NC(=O)c1ncn([C@@H]2O[C@H](CO)[C@@H](O)[C@H]2O)c1N [Compound 123, 5'-Aminoimidazole-4-carboxamide riboside] | – | – | – | – | – | – | – | – | 2400 µM | –
COc1ccc(C(=O)Nc2ncnc3c2ncn3[C@@H]2O[C@H](CO)[C@@H](O)[C@H]2O)cc1 [Compound 47] | – | – | – | – | – | – | – | – | 3.9 ± 0.9 µM | –
Cn1cnc2c(ncn2[C@H]2C[C@H](O)[C@@H](CO)O2)c1=N [Compound 116, 1-Methyl-2'-deoxyadenosine] | – | – | – | – | – | – | – | – | 8000 µM | –
O=C(Nc1ncnc2c1ncn2[C@H]1C[C@H](O)[C@@H](CO)O1)c1ccccc1 [Compound 118, N^6 -Benzoyl-2'-deoxyadenosine] | – | – | – | – | – | – | – | – | 590 ± 20 µM | –
Nc1ncnc2c1nnn2[C@@H]1O[C@H](CO)[C@@H](O)[C@H]1O [Compound 57] | – | – | – | – | – | – | – | – | 23 ± 6 µM | –
OC[C@H]1O[C@@H](n2cnc3c(Br)ncnc32)[C@H](O)[C@@H]1O [Compound 12] | – | – | – | – | – | – | – | – | 28 ± 2 µM | –
COc1ncnc2c1ncn2[C@@H]1O[C@H](CO)[C@@H](O)[C@H]1O [Compound 16] | – | – | – | – | – | – | – | – | 370 ± 40 µM | –
Nc1ncnc2c1ncn2[C@H]1CC[C@@H](CO)O1 [Compound 106, 2',3'-Dideoxyadenosine] | – | – | – | – | – | – | – | – | 5500 µM | –
Nc1c2ncn([C@@H]3O[C@H](CO)[C@@H](O)[C@H]3O)c2nc[n+]1[O-] [Compound 4] | – | – | – | – | – | – | – | – | 1230 µM | –
OC[C@H]1O[C@@H](n2ncc3cncnc32)[C@H](O)[C@@H]1O [Compound 75, 8-Aza-7-deazapurine riboside] | – | – | – | – | – | – | – | – | 5100 µM | –
